# Data as given in PMC9358681 (Biochemical pharmacology, 2022).
# Several values for one entry are separate records, joined by “and”; a condition that tells them apart may be missing. Equal entries are not always repeated. Where two headings read alike, the source gives them in different places.
# Columns and labels:
# [1] = molecular target: T1, hA2BAR (CHO-spap-hA2BAR cells) (Homo sapiens, UniProt P29275); test: Label-free whole-cell washout assay; assay type: cell-based; conditions: 30 × IC50 antagonist 4 hr, NECA EC80, control without antagonist = 100%
# T1 construct: host or cells: CHO-spap
# T1 sequence (P29275 1-332): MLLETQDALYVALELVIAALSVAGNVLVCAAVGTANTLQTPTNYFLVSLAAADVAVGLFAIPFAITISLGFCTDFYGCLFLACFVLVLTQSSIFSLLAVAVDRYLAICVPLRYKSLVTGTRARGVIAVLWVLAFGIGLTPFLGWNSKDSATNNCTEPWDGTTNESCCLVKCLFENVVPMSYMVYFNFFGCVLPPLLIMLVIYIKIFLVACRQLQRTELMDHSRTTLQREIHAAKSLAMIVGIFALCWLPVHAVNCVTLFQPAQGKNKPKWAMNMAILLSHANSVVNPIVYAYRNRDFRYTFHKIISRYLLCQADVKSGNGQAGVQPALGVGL
# Method: The assay followed the same initial steps as described in “Determination of pIC50 values for hA2BAR antagonists”. […] Subsequently, wells were washed by aspiration of the medium, followed by the addition of 95 μL fresh serum free medium. For the unwashed cells, the medium was not removed but was pipetted up and down to simulate any mechanical cell stress.
# Data were analyzed using GraphPad Prism 8.0.
# Subsequently, a washout assay was performed and the cell response to the compounds was monitored and evaluated (Fig. 7). […] For the evaluation of the unwashed condition, the medium was not refreshed but was pipetted up and down in order to mimic the possible mechanical stress induced to the washed cells.
# [2] = molecular target: T2, human A2BAR (Homo sapiens, UniProt P29275); test: [3H]PSB-603 displacement on CHO-spap-hA2BAR membranes; assay type: binding
# T2 construct: host or cells: CHO-spap
# T2 sequence (P29275 1-332): T1 sequence (P29275 1-332)
# [3] = molecular target: T2, human A2BAR; test: [3H]PSB-603 competition association assay; assay type: binding; conditions: for RT: RT = 1/koff; for Kd: read-out: Kinetic KD (koff/kon); for koff: read-out: koff (converted); for kon: read-out: kon (converted)
# Method: In all radioligand binding experiments, CHO-spap-hA2BAR membranes were thawed and homogenized using an Ultra Turrax homogenizer at 24,000 rpm (IKA-Werke GmbH & Co.KG, Staufen, Germany), diluted in assay buffer to the desired concentration (10–30 μg per well or Eppendorf tube). All materials were brought to 25 °C, 30 min prior to the experiment. ZM241385 (10 μM) was used to determine nonspecific binding (NSB).
# Addition of CHO-spap-hA2BAR membrane aliquots initiated the association. The amount of receptor-bound radioligand was determined at different time points up to 3 hr. After 3 hr the incubation was terminated and samples were obtained as described under “Displacement experiments”.
# All competition association data were globally fitted.
# [4] = molecular target: T2, human A2BAR; test: [3H]PSB-603 radioligand washout assay on membranes; assay type: binding; conditions: 10 × IC50, 2 hr pre-incubation, 4x washed, 25 °C
# Method: Were performed at 25 °C and in a total volume of 400 μL. […] Subsequently, the samples were centrifuged at 13200 rpm (16 100g) at 4 °C for 5 min and the supernatant containing unbound ligand was removed. Pellets were resuspended in 1 mL of assay buffer, and samples were incubated for 10 min at 25 °C in the thermomixer. After four centrifugation and washing cycles in total, supernatant was discarded and the membranes were resuspended in a total volume of 400 μL containing 1.5 nM [^3H]PSB-603. After 2 hr at 25 °C incubations were terminated by rapid filtration through GF/C filters using a Brandel harvester and the samples were obtained as described under “Saturation binding experiments”.
# Both the washed and the unwashed conditions were assessed. For the washed condition, the unlabeled compounds were incubated with the target for 2 hr, followed by four wash and centrifugation cycles. Subsequently, [^3H]PSB-603 was co-incubated which led to competition of the radioligand with the unlabeled ligand still bound after the washing procedure. For the unwashed condition no washing was performed before the determination of radioligand displacement. Based on the experimental set-up, the long RT compound and the covalent ligand would be predicted to remain bound to A2BARs, as they would not be easily removed during the washing steps, and thus to result in lower radioligand binding.
# [5] = molecular target: A2A adenosine receptor (Rattus norvegicus, UniProt P30543); test: Radioligand binding, rat A2A ([3H]CGS21680, HEK-293); conditions: rat (r), HEK-293, [3H]CGS21680
# [6] = molecular target: T3, A2B adenosine receptor (Homo sapiens, UniProt P29275); test: Radioligand binding, human A2B ([125I]I-ABOPX, HEK-293); conditions: HEK-293, [125I]I-ABOPX
# T3 sequence (P29275 1-332): T1 sequence (P29275 1-332)
# [7] = molecular target: A2A adenosine receptor (Homo sapiens, UniProt P29274); test: Radioligand binding, human A2A ([3H]CGS21680, HEK-293); conditions: HEK-293, [3H]CGS21680
# [8] = molecular target: T4, A1 adenosine receptor (Homo sapiens, UniProt P30542); test: Radioligand binding, human A1 ([3H]R-PIA, HEK-293); conditions: HEK-293, [3H]R-PIA
# T4 sequence (P30542 1-326): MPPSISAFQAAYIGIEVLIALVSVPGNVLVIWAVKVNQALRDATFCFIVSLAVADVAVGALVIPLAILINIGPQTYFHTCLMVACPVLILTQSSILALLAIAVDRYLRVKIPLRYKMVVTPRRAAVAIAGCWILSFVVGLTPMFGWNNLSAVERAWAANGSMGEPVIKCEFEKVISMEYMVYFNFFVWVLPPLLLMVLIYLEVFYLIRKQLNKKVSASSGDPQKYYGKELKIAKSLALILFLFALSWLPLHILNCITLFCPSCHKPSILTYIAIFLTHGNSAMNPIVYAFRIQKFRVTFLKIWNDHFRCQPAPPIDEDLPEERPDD
# Text: (§1) The A2B receptor selectivity was generally low, especially at the rat A2B receptor.
# [9] = molecular target: T5, A1 adenosine receptor (Rattus norvegicus, UniProt P25099); test: Radioligand binding, rat A1 ([3H]R-PIA, HEK-293); conditions: HEK-293, [3H]R-PIA
# T5 sequence (P25099 1-326): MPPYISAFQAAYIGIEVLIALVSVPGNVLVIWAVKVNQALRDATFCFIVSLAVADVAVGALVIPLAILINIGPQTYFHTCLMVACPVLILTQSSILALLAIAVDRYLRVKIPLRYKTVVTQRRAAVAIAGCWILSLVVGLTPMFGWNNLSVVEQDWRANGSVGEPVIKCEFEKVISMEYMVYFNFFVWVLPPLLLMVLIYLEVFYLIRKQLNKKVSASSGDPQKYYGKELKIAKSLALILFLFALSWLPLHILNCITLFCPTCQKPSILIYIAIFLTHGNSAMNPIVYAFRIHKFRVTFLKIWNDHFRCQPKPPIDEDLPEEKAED
# Text: as §1
# [10] = molecular target: T6, A3 adenosine receptor (Homo sapiens, UniProt P0DMS8); test: Radioligand binding, human A3 ([125I]I-AB-MECA, HEK-293); conditions: HEK-293, [125I]I-AB-MECA
# T6 sequence (P0DMS8 1-318): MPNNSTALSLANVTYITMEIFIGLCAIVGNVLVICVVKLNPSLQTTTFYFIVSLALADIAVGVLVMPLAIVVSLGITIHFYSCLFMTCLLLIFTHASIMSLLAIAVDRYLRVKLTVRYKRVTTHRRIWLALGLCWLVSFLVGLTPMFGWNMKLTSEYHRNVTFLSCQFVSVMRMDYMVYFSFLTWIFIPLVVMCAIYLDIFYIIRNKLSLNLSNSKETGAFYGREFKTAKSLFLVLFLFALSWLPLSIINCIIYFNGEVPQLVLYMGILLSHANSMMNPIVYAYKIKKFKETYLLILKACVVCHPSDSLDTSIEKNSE
# Text: as §1
# [11] = molecular target: T7, A2B adenosine receptor (Rattus norvegicus, UniProt P29276); test: Radioligand binding, rat A2B ([125I]I-ABOPX, HEK-293); conditions: rat (r), HEK-293, [125I]I-ABOPX
# T7 sequence (P29276 1-332): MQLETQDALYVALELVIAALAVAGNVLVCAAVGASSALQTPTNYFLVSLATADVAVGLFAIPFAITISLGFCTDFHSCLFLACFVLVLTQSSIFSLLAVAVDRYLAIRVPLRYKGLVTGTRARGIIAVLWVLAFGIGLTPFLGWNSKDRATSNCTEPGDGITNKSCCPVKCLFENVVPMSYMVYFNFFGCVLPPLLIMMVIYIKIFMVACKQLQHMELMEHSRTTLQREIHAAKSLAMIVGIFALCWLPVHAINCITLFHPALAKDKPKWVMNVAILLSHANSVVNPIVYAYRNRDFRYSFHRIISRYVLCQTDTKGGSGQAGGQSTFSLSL
# [12] = test system: CHO-spap cells; test: Label-free whole-cell assay on empty CHO-spap cells; assay type: cell-based; conditions: NECA 10 pM – 1 μM
# Method: After maintaining at room temperature for about 30 min, the E-plate was placed into the recording station housed in a 37 °C and 5% CO2 incubator.
# [13] = […] [3H]PSB-603, 2 h, 25 °C, read-out: Ki (converted)
# [14] = competing ligand at 1.0-fold IC50, up to 3 hr, 25 °C
# Sequence of A2A adenosine receptor (Rattus norvegicus, UniProt P30543) (P30543 whole entry): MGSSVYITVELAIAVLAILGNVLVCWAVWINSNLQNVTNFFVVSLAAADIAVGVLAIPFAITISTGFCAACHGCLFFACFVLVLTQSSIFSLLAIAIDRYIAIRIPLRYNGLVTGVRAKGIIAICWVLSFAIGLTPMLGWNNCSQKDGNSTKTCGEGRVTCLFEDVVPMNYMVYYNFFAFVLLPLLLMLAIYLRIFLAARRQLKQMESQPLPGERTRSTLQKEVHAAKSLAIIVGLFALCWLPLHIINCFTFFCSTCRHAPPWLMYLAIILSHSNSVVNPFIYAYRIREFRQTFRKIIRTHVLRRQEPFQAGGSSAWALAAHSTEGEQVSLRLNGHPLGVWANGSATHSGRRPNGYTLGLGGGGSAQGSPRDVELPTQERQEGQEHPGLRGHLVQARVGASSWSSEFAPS
# Sequence of A2A adenosine receptor (Homo sapiens, UniProt P29274) (P29274 whole entry): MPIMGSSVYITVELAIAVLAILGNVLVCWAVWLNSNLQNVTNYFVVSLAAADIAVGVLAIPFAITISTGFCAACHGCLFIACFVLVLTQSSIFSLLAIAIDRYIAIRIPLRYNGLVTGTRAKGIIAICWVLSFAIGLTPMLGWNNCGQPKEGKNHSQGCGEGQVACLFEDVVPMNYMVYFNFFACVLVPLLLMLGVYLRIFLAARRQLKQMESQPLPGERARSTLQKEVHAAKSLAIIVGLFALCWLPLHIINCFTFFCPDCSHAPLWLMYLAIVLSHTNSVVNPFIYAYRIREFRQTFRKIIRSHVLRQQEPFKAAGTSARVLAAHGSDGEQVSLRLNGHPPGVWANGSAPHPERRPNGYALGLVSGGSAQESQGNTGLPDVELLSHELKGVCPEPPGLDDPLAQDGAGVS
Compound,"washout - %AUC, 1x washed (NECA signaling) [1]","washout - %AUC, unwashed (NECA signaling) [1]","Ki [2, 13]","RT [3, 14]",Kd [3],koff [3],kon [3],compound removed (washed away) during the washing procedure [4],A2BARs still occupied by ligand after the washing cycles [4],Ki [5],Ki [6],Ki [7],Ki [8],Ki [9],Ki [10],Ki [11],response to NECA [12],Ki ([2]; Ki),"Kinetic KD (koff/kon) [3, 14]"
CCCn1c(=O)c2[nH]c(-c3ccc(OCC(=O)Nc4ccc(C(=O)NC)cc4)cc3)nc2n(CCC)c1=O [Compound 18],68 ± 7%,12 ± 1%,19.9 nM,8 min and 8.0 min and 8.0 ± 0.2 min,10 ± 0.89 nM,0.00208 s⁻¹,200000 M⁻¹ s⁻¹,85%,,,,,,,,,,,
CCCn1c(=O)c2[nH]c(-c3ccc(OCC(=O)Nc4ccc(C(=O)OC)cc4)cc3)nc2n(CCC)c1=O [Compound 17],19 ± 6%,10 ± 3%,2.29 nM,87 min and 87 ± 29 min,1.8 ± 0.62 nM,0.000183 s⁻¹,100000 M⁻¹ s⁻¹,56%,44%,,,,,,,,,,
"CCCn1c(=O)c2[nH]c(-c3ccc(OCC(=O)NCc4ccc(F)cc4)cc3)nc2n(CCC)c1=O [Compound 21, 2-(4-(2,6-dioxo-1,3-dipropyl-2,3,6,7-tetrahydro-1H-purin-8-yl)phenoxy)-N-(4-fluorobenzyl)acetamide]",,,3.6 nM,,3.8 ± 1.7 nM,0.0011 s⁻¹,283000 M⁻¹ s⁻¹,,,251 nM,5.5 ± 1.2 nM,33.6 ± 0.1 nM,63.9 ± 16.5 nM,6.55 nM,89.9 ± 11.6 nM,20 nM,,,
"CCNC(=O)[C@H]1O[C@@H](n2cnc3c(N)ncnc32)[C@H](O)[C@@H]1O [NECA, 5^′-N-ethylcarboxamidoadenosine]",,,,,,,,,,,,,,,,,No response,,
"CCCn1c(=O)c2[nH]c(-c3ccc(OCC(=O)N[C@@H](C)c4ccccc4)cc3)nc2n(CCC)c1=O [Compound 25, (S)-2-(4-(2,6-dioxo-1,3-dipropyl-2,3,6,7-tetrahydro-1H-purin-8-yl)phenoxy)-N-(1-phenylethyl)acetamide]",,,8.11 nM,10 ± 2.3 min,8.6 ± 3 nM,0.00162 s⁻¹,183000 M⁻¹ s⁻¹,,,165 nM,8.2 ± 2.5 nM,21 ± 1.8 nM,23.7 ± 4.9 nM,10.4 nM,156 ± 15 nM,20.2 nM,,,
"CCCn1c(=O)c2[nH]c(-c3ccc(OCC(=O)Nc4ccc(N=C=S)cc4)cc3)nc2n(CCC)c1=O [Compound 29, 2-(4-(2,6-dioxo-1,3-dipropyl-2,3,6,7-tetrahydro-1H-purin-8-yl)phenoxy)-N-(4-isothiocyanatophenyl)acetamide]",,,,Covalent mechanism (see text),,,,18%,,,,,,,,,,9.28 nM,Covalent mechanism (see text)
"CCCn1c(=O)c2[nH]c(-c3ccc(OCC(=O)NCc4ccc(C)cc4)cc3)nc2n(CCC)c1=O [Compound 20, 2-(4-(2,6-dioxo-1,3-dipropyl-2,3,6,7-tetrahydro-1H-purin-8-yl)phenoxy)-N-(4-methylbenzyl)acetamide]",,,9.08 nM,22 ± 3.5 min,12 ± 4.7 nM,0.000767 s⁻¹,66700 M⁻¹ s⁻¹,,,207 nM,8 ± 2.2 nM,20.8 ± 2.4 nM,212 ± 68 nM,8.85 nM,140 ± 7 nM,486 nM,,,
